Source: patent publication US20170014487A1, “Method for treating ocular inflammation” (THE TRUSTEES OF COLUMBIA UNIVERSITY IN THE CITY OF NEW YORK, priority 2014, published 2017)

System: ICAM-1
Test: Western blot of TNF-α-induced ICAM-1 expression in SV40-HCEC cells
Type: cell-based, human
Details: 1-μM secretin
Procedure: Experiments were conducted to set up an in vitro model for dry eye syndrome, using cell cultures of immortalized human cells from the cornea or conjunctiva using the SV40-HCEC corneal cell line of SV40 virus-immortalized corneal cells (12). SV40-HCEC cells were shown using immunofluorescence of anti-oxytocin receptor antibodies to contain oxytocin receptors in the plasma membrane (FIG. 4A, oxytocin receptor fluorescence is in red [top panel]; blue represents nuclear staining with DAPI stain [bottom panel]), consistent with the results showing its presence in rodent conjunctiva and cornea. Moreover, the presence of secretin receptors in SV40HCEC cells was shown using Western blot (FIG. 4B, the presence of secretin receptor migrating at the expected size [arrow]). M: Marker, S: Sample/secretin receptor. The lower band in the sample lane represents degradation product.
A Western blot-based assay was developed to assess for the role of oxytocin and secretin in dry eye syndrome in vitro. The expression of the […] ICAM-1 in SV40-HCEC cells was induced by adding the pro-inflammatory cytokine TNF-α [13]. In vivo, ICAM-1 acts to recruit neutrophils to sites of inflammation, and thus acts as a surrogate for inflammation in vitro.

For “secretin: neuropeptide; endocrine hormone of the glucagon family, commercially available as SecreFlo”, the “Reduction of rate of accumulation of ICAM-1” value was “about two-fold”.
